Data set [1] deals with HCC1937 cells. Description: Proliferative inhibition assay, HCC1937. The settings on record: Homo sapiens, HCC1937, 168 h, read-out: IC50 (mean ± SD). The format is cell-based.
Procedure: (§2) Cells cultured in 96-well plates were treated with PARP inhibitors alone or in combination with the indicated anticancer drugs for 3 days (Chinese hamster cells and Ewing sarcoma cells) or 7 days (all the other cells). Then the cells were subjected to the Cell Counting Kit 8 (CCK8) assays (Chinese hamster cells, Ewing sarcoma cells, HCC1937 and MDA-MB-436 cells) or by Sulforhodamine B (SRB) assays (all the other cells) as described previously [18, 19]. […] The averaged IC50 values (mean ± SD) were determined with the Logit method from three independent tests.
Details of data set [2]: method as in PMID 19553641. The settings on record: cited from earlier work.
In data set [3] the test system is HCT-15 cells. Kind of data set: Proliferative inhibition assay, HCT-15. The settings on record: Homo sapiens, HCT-15, 168 h, read-out: IC50 (mean ± SD). It is filed as cell-based.
Procedure: as §2
On the set-up of data set [4]: method as in PMID 19553641. The settings on record: humans; cited from earlier work.
Details of data set [5]: method as in PMID 18800822. The settings on record: rats; cited from earlier work.
The conditions of data set [6]: cited from earlier work.
For data set [7], the system named is DoTc2-4510 cells. Description: Proliferative inhibition assay, DoTc2-4510. It is filed as cell-based. The settings on record: Homo sapiens, DoTc2-4510, 168 h, read-out: IC50 (mean ± SD).
Procedure: as §2
Data set [8] concerns RD-ES cells. Kind of data set: Proliferative inhibition assay, RD-ES. The format is cell-based. The settings on record: Homo sapiens, 72 h, read-out: IC50 (mean ± SD).
Procedure: as §2
Data set [9] has as its system V-C8+H13 cells. Description: Proliferative inhibition assay, V-C8+H13. It is filed as cell-based, Chinese hamster. The settings on record: Cricetulus griseus, 72 h, read-out: IC50 (mean ± SD).
Procedure: as §2
Data set [10] has as its system V79 cells. Kind of data set: Proliferative inhibition assay, V79. It is filed as cell-based, Chinese hamster. The settings on record: Cricetulus griseus, V79, 72 h, read-out: IC50 (mean ± SD).
Procedure: as §2
Data set [11] deals with V79 xenografts. Description: V79 subcutaneous xenografts in nude mice. The settings on record: similar treatments as in V-C8 xenografts. It is filed as in vivo. An excerpt:
(§1) V-C8, V79, MDA-MB-436 and SW620 xenografts were established by inoculating 5 × 10^6 cells s.c. in nude mice, respectively. After 1~2 passages in nude mice, the well-grown xenografts were cut into 1.5-mm^3 fragments that subsequently were transplanted s.c. into the right flank of nude mice. When xenografts reached a volume of 100–200 mm^3 (230-240 mm^3 for V79), the mice were randomized to control and treated groups and received the corresponding treatments as indicated. […]. The size of xenografts and the body weight of mice were measured individually twice per week. The xenografts were measured for the maximal width (X) and length (Y) and the volume (V) was calculated as (X^2Y)/2. Relative tumor volume (RTV) was calculated as Vt / V0, where V0 and Vt were the volume before and after treatments, respectively. The in vivo anticancer activity was judged by their T/C (%) values. T/C (%) was calculated as (TRTV / CRTV)×100%, where TRTV and CRTV represented the RTV of the treatment and the vehicle group, respectively.

Data set [12] concerns MDA-MB-436 xenografts. Kind of data set: MDA-MB-436 subcutaneous xenografts in nude mice. The format is in vivo. The settings on record: oral; MPH once every other day, AZD2281 30 mg/kg each day.
Text: as §1

Data set [13] deals with U251 cells. Kind of data set: Proliferative inhibition assay, U251. The format is cell-based. The settings on record: Homo sapiens, U-251, 168 h, read-out: IC50 (mean ± SD).
Procedure: as §2
Data set [14] concerns SK-ES-1 cells. Kind of data set: Proliferative inhibition assay, SK-ES-1. The format is cell-based. The settings on record: Homo sapiens, SK-ES1, 72 h, read-out: IC50 (mean ± SD).
Procedure: as §2
The subject of data set [15] is P-glycoprotein (P-gp). The arrangement: method as in PMID 26374559. The settings on record: cited from earlier work.
Data set [16] relates to γH2AX in V-C8 cells. Description: γH2AX accumulation in cultured V-C8 cells. It is filed as cell-based, Chinese hamster. The settings on record: V-C8 (BRCA2−/−), concentration-dependent.
On the set-up of data set [17]: method as in PMID 18800822. The settings on record: dogs; cited from earlier work.
Data set [18] deals with V-C8 cells. Kind of data set: Proliferative inhibition assay, V-C8. It is filed as cell-based, Chinese hamster. The settings on record: Cricetulus griseus, V-C8, 72 h, read-out: IC50 (mean ± SD).
Procedure: as §2
The subject of data set [19] is MDA-MB-436 cells. Description: Proliferative inhibition assay, MDA-MB-436. The format is cell-based. The settings on record: Homo sapiens, MDA-MB-436, 168 h, read-out: IC50 (mean ± SD).
Procedure: as §2
Data set [20] deals with V-C8 xenografts. It is filed as in vivo. The settings on record: mouse, in vivo.
Text: as §1

In data set [21] the test system is PC-3 cells. Kind of data set: Proliferative inhibition assay, PC-3. The settings on record: Homo sapiens, PC-3, 168 h, read-out: IC50 (mean ± SD). It is filed as cell-based.
Procedure: as §2
The test system of data set [22] is γH2AX in MDA-MB-436 cells. Description: γH2AX accumulation in cultured MDA-MB-436 cells. The settings on record: MDA-MB-436 (BRCA1−/−), concentration-dependent. It is filed as cell-based, human.
Data set [23] relates to UWB1.289 cells. Description: Proliferative inhibition assay, UWB1.289. It is filed as cell-based. The settings on record: Homo sapiens, UWB1289, 168 h, read-out: IC50 (mean ± SD).
Procedure: as §2
In data set [24] the test system is Capan-1 cells. Description: Proliferative inhibition assay, Capan-1. The format is cell-based. The settings on record: Homo sapiens, CAPAN-1, 168 h, read-out: IC50 (mean ± SD).
Procedure: as §2
Data set [25] can be described thus: Metabolites in monkey plasma. The settings on record: monkeys, MPH 10 mg/kg oral; for share of the total amount of all the metabolites and MPH in the plasma: 3-h time point; for average remaining amount, of the corresponding plasma amount at 3 h: 12-h time point. The format is in vivo. On the procedure:
SD rats and cynomolgus monkeys were used to do the in vivo pharmacokinetic studies. […] The metabolites in the monkey plasma were analyzed by UPLC-UV/Q-TOF MS. The metabolite data were collected with Analyst® TF V1.6 (AB Sciex Inc., Framingham, MA) and Masslynx V4.1 (Waters Corporation, Milford, MA) and analyzed with PeakView® V1.2 and MetabolitePilot V1.5 (AB Sciex).

The subject of data set [26] is SW620 xenografts. Description: SW620 subcutaneous xenografts in nude mice, alone or with TMZ. It is filed as in vivo. The settings on record: SW620, d21, TMZ 2 mg/kg alone.
Procedure: After 1~2 passages in nude mice, the well-grown xenografts were cut into 1.5-mm^3 fragments that subsequently were transplanted s.c. into the right flank of nude mice. When xenografts reached a volume of 100–200 mm^3 (230-240 mm^3 for V79), the mice were randomized to control and treated groups and received the corresponding treatments as indicated. […] The size of xenografts and the body weight of mice were measured individually twice per week. The xenografts were measured for the maximal width (X) and length (Y) and the volume (V) was calculated as (X^2Y)/2. Relative tumor volume (RTV) was calculated as Vt / V0, where V0 and Vt were the volume before and after treatments, respectively.

Converted amounts (≈) assume the structure as drawn. Where two headings read alike, the source gives them in different places.

The IC50 is the midpoint of a concentration-inhibition curve. In general, Vd refers to the apparent volume that relates the amount in the body to the concentration in plasma or blood. As for `O=C(c1cc(Cc2n[nH]c(=O)c3ccccc23)ccc1F)N1CCN(C(=O)C2CC2)CC1` [AZD2281, olaparib, reference compound], the IC50 in data set [1] came to 7280 ± 1910 nM; in data set [3] it was 25700 ± 4700 nM; in [7] it was 890 ± 280 nM; in data set [8], 670 ± 140 nM; in data set [9], 13600 ± 1850 nM; in [10], 15600 ± 1150 nM. Moreover, the IC50 in data set [13] was found to be 2500 ± 640 nM; in [14], 1700 ± 130 nM; in [18] it was 610 ± 40 nM; in [19], 20 ± 10 nM; in data set [21], 4700 ± 690 nM; in data set [23], 2980 ± 1650 nM. In addition, the IC50 in data set [24] amounted to 1730 ± 320 nM. The “passage of the blood-brain barrier” value in data set [2] is recorded as “hard to go through the blood-brain barrier”. In addition, the “average Vd” value in data set [4] is recorded as 40.3 L. For the same compound, the Vd in data set [5] was 1.18 L/kg; in [17], 1.3 L/kg. Moreover, the water solubility in data set [6] was below 1000 µg/mL. Moreover, the “solubility in aqueous media” value in data set [6] (independent of pH) is 100 µg/mL (≈ 230 µM). The “effect on growth of V79 xenografts” value in [11] is “did not inhibit the growth of V79 xenografts”. The “effect on growth of MDA-MB-436 (BRCA1−/−) xenografts” value in data set [12] was “between those of MPH at 40 mg/kg and 80 mg/kg every other day”. Moreover, the P-gp substrate result in [15] is listed as “substrate of the drug transporter P-glycoprotein (P-gp)”. In addition, the “γH2AX levels (DSB accumulation)” value in data set [16] and in [22] was “increased levels of γH2AX” in each case. The “death or body-weight loss of the animals” value in data set [20] is “did not cause death or significant body-weight loss”.

Regarding `CNCc1ccc(-c2cc3cc(F)cc(C(=O)O)c3o2)cc1` [M1], in data set [25], the “share of the total amount of all the metabolites and MPH in the plasma” value (shortened to “share”) is given as 52.18%; the “average remaining amount, of the corresponding plasma amount at 3 h” value came out at 3.13%.

Take `NC(=O)c1cc(F)cc2cc(-c3ccc(C(=O)O)cc3)oc12` [M2]: in [25], the “share” value came out at 1.86%; the “average remaining amount, of the corresponding plasma amount at 3 h” value was 23.54%.

Consider `CNCc1ccc(-c2cc3cc(F)cc(C(=O)OC4OC(C(=O)O)C(O)C(O)C4O)c3o2)cc1` (centres unmarked) [M3], for which, in [25], the “share” value turned out to be 4.18%.

Take `CNC(=O)c1ccc(-c2cc3cc(F)cc(C(N)=O)c3o2)cc1` [M4]: the “share” value in data set [25] is 0.24%.

With `CC(=O)NCc1ccc(-c2cc3cc(F)cc(C(=O)O)c3o2)cc1` [M5], in data set [25], the “share” value was found to be 0.72%.

In the case of `CN(Cc1ccc(-c2cc3cc(F)cc(C(N)=O)c3o2)cc1)OC1OC(C(=O)O)C(O)C(O)C1O` (centres unmarked) [M6], the “share” value in data set [25] is recorded as 1.63%.

As for `Cn1nnc2c(C(N)=O)ncn2c1=O` [TMZ, temozolomide, reference compound], in [26], the “FTV (fractional tumor volume), TMZ alone” value is on record as 0.16.

As to `NC(=O)c1cccc2cn(-c3ccc([C@@H]4CCCNC4)cc3)nc12` [niraparib], the water solubility in data set [6] is below 1000 µg/mL.

In the case of `CNCc1ccc(-c2[nH]c3cc(F)cc4c3c2CCNC4=O)cc1` [rucaparib], the water solubility in data set [6] was below 1000 µg/mL.

Turning to `Cn1ncnc1[C@H]1c2n[nH]c(=O)c3cc(F)cc(c23)N[C@@H]1c1ccc(F)cc1` [talazoparib], in data set [6], the water solubility was below 1000 µg/mL.

As for `C[C@]1(c2nc3c(C(N)=O)cccc3[nH]2)CCCN1` [veliparib], the water solubility in [6] is below 1000 µg/mL.

The values above are taken from article PMC5354820, “Novel PARP1/2 inhibitor mefuparib hydrochloride elicits potent in vitro and in vivo anticancer activity, characteristic of high tissue distribution” (Oncotarget, 2016).
